Counter-ions that a name gives are not always drawn.
Tests used:
[1] = molecular target: T1, C-Met kinase (SEQ ID NO:10) (Homo sapiens, UniProt P08581); test: C-Met kinase assay (pyruvate kinase/lactate dehydrogenase coupled); details: 0.5 h preincubation at 22° C., ATP 100 μM; read-out: c-Met Enzyme Assay, biochemical IC50
T1 construct: purchased Invitrogen PV3143
Procedure: C-Met Kinase (SEQ ID NO:10) Assay
Activity of C-Met kinase (SEQ ID NO:10) was determined by following the production of ADP from the kinase reaction through coupling with the pyruvate kinase/lactate dehydrogenase system (e.g., Schindler, et al. Science (2000) 289, 1938-1942). In this assay, the oxidation of NADH (thus the decrease at A340 nm) was continuously monitored spectrophometrically. The reaction mixture (100 μl) contained C-Met (c-Met residues; 956-1390, from Invitrogen, catalogue #PV3143, 6 nM), polyE4Y (1 mg/ml), MgCl2 (10 mM), pyruvate kinase (4 units), lactate dehydrogenase (0.7 units), phosphoenol pyruvate (1 mM), and NADH (0.28 mM) in 90 mM Tris buffer containing 0.25 mM DTT, 0.2% octyl-glucoside and 1% DMSO, pH 7.5. Test compounds were incubated with C-Met (SEQ ID NO:10) and other reaction reagents at 22° C. for 0.5 h before ATP (100 μM) was added to start the reaction. The absorption at 340 n=was monitored continuously for 2 hours at 30° C. on Polarstar Optima plate reader (BMG). The reaction rate was calculated using the 1.0 to 2.0 h time frame. Percent inhibition was obtained by comparison of reaction rate with that of a control (i.e. with no test compound). IC50 values were calculated from a series of percent inhibition values determined at a range of inhibitor concentrations using software routines as implemented in the GraphPad Prism software package.

[2] = molecular target: B-Raf(V600E) kinase (SEQ ID NO:11) (Homo sapiens, UniProt P15056, V600E); test: B-Raf(V600E) kinase assay (pyruvate kinase/lactate dehydrogenase coupled, MEK1 substrate); details: 1 h preincubation at 30° C., ATP 0.2 mM; read-out: B-Raf V600E Enzyme Assay, biochemical IC50
Procedure: B-Raf(V600E) Kinase Assay
The activity of B-Raf(V600E) kinase (SEQ ID NO:11) was determined by following the formation of ADP from the reaction through coupling with the pyruvate kinase/lactate dehydrogenase system (e.g., Schindler, et al. Science (2000) 289, 1938-1942). In this assay, the oxidation of NADH (thus the decrease at A340nm) was continuously monitored spectrophotometrically. The reaction mixture (100 μl) contained B-Raf(V600E) kinase (0.34 nM nominal concentration, SEQ ID NO:11), unphosphorylated, full-length MEK1 (42 nM, SEQ ID NO:12), MgCl2 (13 mM), pyruvate kinase (3.5 units), lactate dehydrogenase (5.5 units), phosphoenolpyruvate (1 mM), and NADH (0.28 mM), in 60 mM Tris buffer, containing 0.13% octyl-glucoside and 3.5% DMSO concentration at pH 7.5. The test compounds were incubated with the reaction mixture at 30° C. for 1 h. The reaction was initiated by adding ATP (0.2 mM, final concentration). The absorption at 340 nm was continuously monitored for 3 h at 30° C. on a Polarstar Optima plate reader (BMG). The reaction rate was calculated using the 0.5 h to 1.5 h time frame. Percent inhibition was obtained by comparison of reaction rate with that of a control (i.e. with no test compound). IC50 values were calculated from a series of percent inhibition values determined at a range of inhibitor concentrations using software routines as implemented in the GraphPad Prism software package.

[3] = molecular target: T2, BaF3 cells transfected with wild type p210 BCR-Abl (Homo sapiens, UniProt P00519); test: Ba/F3 p210 whole cell proliferation assay (Cell Titer Blue, 72 hours); type: cell-based; details: 72 hours incubation; read-out: Ba/F3 p210 whole cell proliferation assay, antiproliferation IC50
T2 construct: fused on or other part: P11274 (Breakpoint cluster region protein)
Procedure: BaF3 cells (parental or transfected with the following: wild type p210 BCR-Abl and T315I p210 BCR-Abl was obtained from Professor Richard Van Etten (New England Medical Center, Boston, Mass.). Briefly, cells were grown in RPMI 1640 supplemented with 10% characterized fetal bovine serum (HyClone, Logan, Utah) at 37 degrees Celsius, 5% CO2, 95% humidity. Cells were allowed to expand until reaching 80% saturation at which point they were subcultured or harvested for assay use.
A serial dilution of test compound was dispensed into a 96 well black clear bottom plate (Corning, Corning, N.Y.). For each cell line, three thousand cells were added per well in complete growth medium. Plates were incubated for 72 hours at 37 degrees Celsius, 5% CO2, 95% humidity. At the end of the incubation period Cell Titer Blue (Promega, Madison, Wis.) was added to each well and an additional 4.5 hour incubation at 37 degrees Celsius, 5% CO2, 95% humidity was performed. Plates were then read on a BMG Fluostar Optima (BMG, Durham, N.C.) using an excitation of 544 nm and an emission of 612 nm. Data was analyzed using Prism software (Graphpad, San Diego, Calif.) to calculate IC50's.

[4] = molecular target: T3, c-Kit kinase (SEQ ID NO:9) (Homo sapiens, UniProt P10721); test: c-Kit kinase assay (pyruvate kinase/lactate dehydrogenase coupled); details: <2 min preincubation at 22° C., ATP 200 μM; read-out: c-Kit Enzyme Assay, biochemical IC50
T3 construct: purchased ProQinase
Procedure: C-Kit Kinase (SEQ ID NO:9) Assay
Activity of c-Kit kinase (SEQ ID NO:9) was determined by following the production of ADP from the kinase reaction through coupling with the pyruvate kinase/lactate dehydrogenase system (e.g., Schindler, et al. Science (2000) 289, 1938-1942). In this assay, the oxidation of NADH (thus the decrease at A340 nm) was continuously monitored spectrophometrically. The reaction mixture ([…]) contained c-Kit (cKIT residues T544-V976, from ProQinase, 5.4 nM), polyE4Y (1 mg/ml), MgCl2 (10 mM), pyruvate kinase (4 units), lactate dehydrogenase (0.7 units), phosphoenol pyruvate (1 mM), and NADH (0.28 mM) in 90 mM Tris buffer containing 0.2% octyl-glucoside and 1% DMSO, pH 7.5. Test compounds were incubated with […] (SEQ ID NO:9) and other reaction reagents at 22° C. for <2 min before ATP (200 μM) was added to start the reaction. The absorption at 340 nm was monitored continuously for 0.5 hours at 30° C. on Polarstar Optima plate reader (BMG). The reaction rate was calculated using the 0 to 0.5 h time frame. Percent inhibition was obtained by comparison of reaction rate with that of a control (i.e. with no test compound). IC50 values were calculated from a series of percent inhibition values determined at a range of inhibitor concentrations using software routines as implemented in the GraphPad Prism software package.

T1 sequence (P08581 with tags, fused parts or gaps): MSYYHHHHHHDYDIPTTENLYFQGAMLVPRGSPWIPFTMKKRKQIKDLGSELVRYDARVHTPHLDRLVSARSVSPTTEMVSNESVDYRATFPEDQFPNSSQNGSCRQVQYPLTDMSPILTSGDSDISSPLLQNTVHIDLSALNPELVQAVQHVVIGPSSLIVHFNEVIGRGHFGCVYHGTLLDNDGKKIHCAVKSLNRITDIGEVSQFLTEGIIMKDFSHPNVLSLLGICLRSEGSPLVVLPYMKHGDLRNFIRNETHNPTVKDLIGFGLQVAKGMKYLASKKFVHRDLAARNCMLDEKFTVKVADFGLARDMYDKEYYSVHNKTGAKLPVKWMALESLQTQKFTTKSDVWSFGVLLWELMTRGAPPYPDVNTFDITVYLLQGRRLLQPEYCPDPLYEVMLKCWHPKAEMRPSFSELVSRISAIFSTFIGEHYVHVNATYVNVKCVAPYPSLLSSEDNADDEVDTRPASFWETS
T3 sequence (P10721 with tags, fused parts or gaps): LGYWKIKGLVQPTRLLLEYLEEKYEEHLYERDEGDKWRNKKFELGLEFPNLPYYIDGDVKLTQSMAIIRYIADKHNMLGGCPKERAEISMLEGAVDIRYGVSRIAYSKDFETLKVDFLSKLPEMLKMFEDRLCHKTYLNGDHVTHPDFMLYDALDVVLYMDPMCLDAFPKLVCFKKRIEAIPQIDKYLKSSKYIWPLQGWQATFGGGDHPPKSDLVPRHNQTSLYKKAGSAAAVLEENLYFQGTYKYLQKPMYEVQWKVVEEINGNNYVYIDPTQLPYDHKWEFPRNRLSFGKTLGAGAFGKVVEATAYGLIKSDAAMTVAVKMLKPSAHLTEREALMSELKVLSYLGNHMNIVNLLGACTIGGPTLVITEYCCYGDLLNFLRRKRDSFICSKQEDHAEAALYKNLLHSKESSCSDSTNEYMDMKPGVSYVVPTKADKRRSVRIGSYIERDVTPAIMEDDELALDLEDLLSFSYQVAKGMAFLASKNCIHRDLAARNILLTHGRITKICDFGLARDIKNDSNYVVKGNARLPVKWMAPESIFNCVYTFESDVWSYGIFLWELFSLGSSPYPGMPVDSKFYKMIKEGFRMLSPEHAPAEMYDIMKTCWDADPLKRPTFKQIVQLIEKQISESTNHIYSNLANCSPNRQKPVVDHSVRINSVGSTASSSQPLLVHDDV
Sequence of B-Raf(V600E) kinase (SEQ ID NO:11) (P15056 with tags, fused parts or gaps V600E): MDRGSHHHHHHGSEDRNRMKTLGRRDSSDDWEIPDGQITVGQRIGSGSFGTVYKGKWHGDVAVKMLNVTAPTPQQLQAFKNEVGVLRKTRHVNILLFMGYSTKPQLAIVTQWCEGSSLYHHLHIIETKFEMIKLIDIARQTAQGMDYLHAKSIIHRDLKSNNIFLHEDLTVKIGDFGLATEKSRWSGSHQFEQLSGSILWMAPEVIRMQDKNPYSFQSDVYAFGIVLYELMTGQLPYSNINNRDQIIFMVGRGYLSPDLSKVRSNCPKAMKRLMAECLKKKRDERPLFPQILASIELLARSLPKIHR
T2 sequence (P00519 whole entry, change not shown, the tested form may be a part): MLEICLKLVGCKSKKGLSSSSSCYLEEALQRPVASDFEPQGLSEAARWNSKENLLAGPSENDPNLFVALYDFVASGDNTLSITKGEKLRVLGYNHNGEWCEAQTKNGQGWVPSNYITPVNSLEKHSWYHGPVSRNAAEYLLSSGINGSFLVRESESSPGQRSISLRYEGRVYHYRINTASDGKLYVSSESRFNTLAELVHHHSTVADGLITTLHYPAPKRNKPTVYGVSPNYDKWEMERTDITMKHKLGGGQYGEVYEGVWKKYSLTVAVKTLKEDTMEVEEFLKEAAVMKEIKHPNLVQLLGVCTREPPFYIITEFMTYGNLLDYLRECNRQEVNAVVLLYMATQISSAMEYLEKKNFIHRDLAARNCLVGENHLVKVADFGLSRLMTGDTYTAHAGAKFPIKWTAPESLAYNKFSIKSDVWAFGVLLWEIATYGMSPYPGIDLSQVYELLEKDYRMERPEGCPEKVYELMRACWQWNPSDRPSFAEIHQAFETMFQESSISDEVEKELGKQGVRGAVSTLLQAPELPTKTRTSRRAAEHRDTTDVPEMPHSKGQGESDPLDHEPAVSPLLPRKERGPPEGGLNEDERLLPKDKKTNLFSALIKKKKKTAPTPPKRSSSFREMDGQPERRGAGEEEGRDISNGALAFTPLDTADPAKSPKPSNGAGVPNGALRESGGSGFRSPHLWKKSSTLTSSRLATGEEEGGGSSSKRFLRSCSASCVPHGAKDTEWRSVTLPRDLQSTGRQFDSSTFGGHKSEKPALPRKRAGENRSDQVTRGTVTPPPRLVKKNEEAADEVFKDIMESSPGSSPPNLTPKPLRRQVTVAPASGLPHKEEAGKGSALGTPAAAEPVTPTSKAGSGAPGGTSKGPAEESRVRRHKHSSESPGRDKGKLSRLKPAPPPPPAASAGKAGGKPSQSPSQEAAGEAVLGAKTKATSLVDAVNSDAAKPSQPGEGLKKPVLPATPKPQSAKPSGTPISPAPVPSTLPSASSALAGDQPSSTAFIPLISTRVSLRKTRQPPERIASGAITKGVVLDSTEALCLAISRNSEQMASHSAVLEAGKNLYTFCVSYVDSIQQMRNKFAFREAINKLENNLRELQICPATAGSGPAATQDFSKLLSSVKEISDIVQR

| Compound | IC50 [1] | IC50 [2] | GI50 [3] | IC50 [4] |
| --- | --- | --- | --- | --- |
| CC(C)(C)c1cc(NC(=O)Nc2ccc(Oc3ccnc(-c4cn[nH]c4)c3)cc2F)n(-c2cccc(C#N)c2)n1 [Example 3, 1-(4-(2-(1H-pyrazol-4-yl)pyridin-4-yloxy)-2-fluorophenyl)-3-(3-tert-butyl-1-(3-cyanophenyl-1H-pyrazol-5-yl)urea hydrochloride] | < 100 nM | < 100 nM | < 100 nM |  |
| CC(C)c1cc(NC(=O)Nc2ccc(Oc3ccnc(-c4cnn(C)c4)c3)cc2F)n(-c2ccc(F)c(C#N)c2)n1 [Example 5, 1-(1-(3-cyano-4-fluorophenyl)-3-isopropyl-1H-pyrazol-5-yl)-3-(2-fluoro-4-(2-(1-methyl-1H-pyrazol-4-yl)pyridin-4-yloxy)phenyl)urea] | < 1000 nM | < 100 nM | < 100 nM | < 100 nM |
| Cn1cc(-c2cc(Oc3ccc(NC(=O)Nc4cc(C(C)(C)C)nn4-c4ccc(CO)cc4)c(F)c3)ccn2)cn1 [Example 8, 1-(3-tert-butyl-1-(4-(hydroxymethyl)phenyl)-1H-pyrazol-5-yl)-3-(2-fluoro-4-(2-(1-methyl-1H-pyrazol-4-yl)pyridin-4-yloxy)phenyl)urea] | < 100 nM | < 100 nM | < 100 nM |  |
| CCc1cc(NC(=O)Nc2ccc(Oc3ccnc(-c4cnn(C)c4)c3)cc2F)n(-c2cccc(C#N)c2)n1 [Example 9, 1-(1-(3-cyanophenyl)-3-ethyl-1H-pyrazol-5-yl)-3-(2-fluoro-4-(2-(1-methyl-1H-pyrazol-4-yl)pyridin-4-yloxy)phenyl)urea] | < 1000 nM | < 1000 nM | < 100 nM | < 100 nM |
| Cc1ccc(-n2nc(C(C)C)cc2NC(=O)Nc2ccc(Oc3ccnc(-c4cnn(C)c4)c3)cc2F)cc1C#N [Example 11, 1-(1-(3-cyano-4-methylphenyl)-3-isopropyl-1H-pyrazol-5-yl)-3-(2-fluoro-4-(2-(1-methyl-1H-pyrazol-4-yl)pyridin-4-yloxy)phenyl)urea] | < 100 nM | < 100 nM | < 100 nM |  |
| Cn1cc(-c2cc(Oc3ccc(NC(=O)Nc4cc(-c5ccccc5F)nn4C)c(F)c3F)ccn2)cn1 [Example 25, 1-(2,3-difluoro-4-(2-(1-methyl-1H-pyrazol-4-yl)pyridin-4-yloxy)phenyl)-3-(3-(2-fluorophenyl)-1-methyl-1H-pyrazol-5-yl)urea] | < 1000 nM | < 1000 nM | < 1000 nM |  |

More lines, now with the values ahead:

| IC50 [1] | IC50 [2] | GI50 [3] | IC50 [4] | Compound |
| --- | --- | --- | --- | --- |
| < 10000 nM | < 1000 nM | < 100 nM |  | 1-(2-tert-butyl-4-(pyridin-3-yl)pyrimidin-5-yl)-3-(2-fluoro-5-(8-methyl-2-(methylamino)-7-oxo-7,8-dihydropyrido[2,3-d]pyrimidin-6-yl)phenyl)urea [Example 10] |
| < 100 nM | < 100 nM | < 100 nM | < 100 nM | CC(C)c1cc(NC(=O)Nc2ccc(Oc3ccnc(-c4cnn(C)c4)c3)cc2F)n(-c2cccc(C#N)c2)n1 [Example 2, 1-(1-(3-cyanophenyl)-3-isopropyl-1H-pyrazol-5-yl)-3-(2-fluoro-4-(2-(1-methyl-1H-pyrazol-4-yl)pyridin-4-yloxy)phenyl)urea] |
| < 100 nM | < 100 nM | < 100 nM |  | Cn1cc(-c2cc(Oc3ccc(NC(=O)Nc4cc(C(C)(C)C)nn4-c4cccc(C#N)c4)c(F)c3)ccn2)cn1 [Example 4, 1-(3-tert-butyl-1-(3-cyanophenyl)-1H-pyrazol-5-yl)-3-(2-fluoro-4-(2-(1-methyl-1H-pyrazol-4-yl)pyridin-4-yloxy)phenyl)urea hydrochloride] |
| < 100 nM | < 100 nM | < 100 nM |  | Cn1cc(-c2cc(Oc3ccc(NC(=O)Nc4cc(C(C)(C)C)nn4-c4ccc(C#N)cc4)c(F)c3)ccn2)cn1 [Example 6, 1-(3-tert-butyl-1-(4-cyanophenyl)-1H-pyrazol-5-yl)-3-(2-fluoro-4-(2-(1-methyl-1H-pyrazol-4-yl)pyridin-4-yloxy)phenyl)urea] |
| < 100 nM | < 100 nM | < 100 nM |  | Cn1cc(-c2cc(Oc3ccc(NC(=O)Nc4cc(C(C)(C)C)nn4-c4cccc(CO)c4)c(F)c3)ccn2)cn1 [Example 7, 1-(3-tert-butyl-1-(3-(hydroxymethyl)phenyl)-1H-pyrazol-5-yl)-3-(2-fluoro-4-(2-(1-methyl-1H-pyrazol-4-yl)pyridin-4-yloxy)phenyl)urea p-toluenesulfonic acid] |
| < 10000 nM | < 100000 nM | < 100 nM |  | Cc1ncc(NC(=O)Nc2ccc(Oc3ccnc(-c4cnn(C)c4)c3)cc2F)c(-c2ccccc2)n1 [Example 14, 1-(2-fluoro-4-(2-(1-methyl-1H-pyrazol-4-yl)pyridin-4-yloxy)phenyl)-3-(2-methyl-4-phenylpyrimidin-5-yl)urea] |
| < 100 nM | < 100 nM | < 100 nM |  | CC(C)c1cc(NC(=O)Nc2ccc(Oc3ccnc(-c4cnn(C)c4)c3)c(F)c2)n(-c2cccc(C#N)c2)n1 [Example 16, 1-(1-(3-cyanophenyl)-3-isopropyl-1H-pyrazol-5-yl)-3-(3-fluoro-4-(2-(1-methyl-1H-pyrazol-4-yl)pyridin-4-yloxy)phenyl)urea] |
| < 100 nM | < 100 nM | < 100 nM |  | CC(C)c1cc(NC(=O)Nc2ccc(Oc3ccnc(-c4cnn(C)c4)c3)cc2F)n(-c2cccc(F)c2)n1 [Example 24, 1-(2-fluoro-4-(2-(1-methyl-1H-pyrazol-4-yl)pyridin-4-yloxy)phenyl)-3-(1-(3-fluorophenyl)-3-isopropyl-1H-pyrazol-5-yl)urea] |

— patent US20080269267A1, “KINASE INHIBITORS USEFUL FOR THE TREATMENT OF MYLEOPROLIFIC DISEASES AND OTHER PROLIFERATIVE DISEASES” (Deciphera Pharmaceuticals, LLC, priority 2007, published 2008)
